Measurements from the SangsterLogP compilation.

Assay: method code SF, from DOI: 10.1016/j.ejps.2012.10.019, PMID: 23131797

For `O=C(c1cc2ccccc2s1)N1CCCN(c2ccc(C(F)(F)F)cn2)CC1`, the logD (pH 10.5) was 4.92.
`COC(=O)CCNc1nc(-c2cccnc2)nc2sc3c(c12)CCCC3` showed a logD (pH 10.5) of 4.69.
In the case of `O=C(Nc1ccc(OC(F)F)cc1)c1ccc(COc2ccc(I)cc2)o1`, the logD (pH 5.0) is reported as 5.99.
`Cc1nc(N(C)C)c2sc(=S)n(-c3ccccc3)c2n1` gave a logD (pH 10.5) of 3.62.
For `CCOc1ccc(NC=C(S(=O)(=O)c2ccc(C)cc2)S(=O)(=O)c2ccc(C)cc2)cc1`, the logD (pH 5.0) was 5.64.
Work on `C=CCNC(=O)CSc1nnc(CCn2nc(C)c(Br)c2C)n1CC` yielded a logD (pH 10.5) of 3.53.
In the case of `COC(=O)c1ccc(Br)c(S(=O)(=O)N2CCCCC2)c1`, the logD (pH 5.0) is reported as 3.66.
With `Cc1cccc(C)c1NC(=O)CNC(=O)C1CCN(S(=O)(=O)c2cccc(Cl)c2Cl)CC1` the logD (pH 2.0) was 3.41.
`CC(=O)N1CC(=O)N(CC(=O)N(Cc2ccccc2)c2nc(-c3ccccc3)cs2)C1=S` gave a logD (pH 6.5) of 4.43.
`COC(=O)c1ccc(OC(=O)c2cc(OC)cc(OC)c2)cc1` gave a logD (pH 5.0) of 4.64.
Compound `O=C(NC1CCCC1)C1c2ccccc2Oc2ccccc21` has a logD (pH 5.0) of 3.95.
Compound `CCCCC(=O)NC1C2CC3CC(C2)CC1C3` (configuration not stated) has a logD (pH 5.0) of 3.8.
For `O=C(CSc1nc2ccccc2s1)c1cccs1`, the logD (pH 5.0) was 4.04.
With `COc1cc(C(=O)Nc2cccc(C#N)c2)cc(OC)c1OC` the logD (pH 5.0) was 3.44.
`O=C(CSc1nc2ccccc2c(=O)n1-c1ccc(Cl)cc1)NC1CCCCC1` gave a logD (pH 6.5) of 4.92.
For `N#CCc1nc(-c2ccc3c(c2)OCCO3)cs1`, the logD (pH 5.0) was 2.92.
Work on `CCn1ccc(CN(C)C(=O)c2ccccc2COc2ccc(F)cc2F)n1` yielded a logD (pH 5.0) of 4.43.
With `Cc1ccc(NC(=O)CSc2nnc(Cc3ccccc3)o2)cc1Cl` the logD (pH 5.0) was 4.85.
Work on `CCN1C(=O)c2cccc3c(S(=O)(=O)N(C(=O)c4cccnc4)c4ccc(OC)cc4)ccc1c23` yielded a logD (pH 7.3) of 4.74.
In the case of `COc1c(Cl)ccc(Cl)c1C(=O)Nc1ccc(C)cc1C`, the logD (pH 5.0) is reported as 4.
`Cc1nn(C)cc1-c1cc(C(F)(F)F)n2ncc(C(=O)N(C3CCCCC3)C3CCCCC3)c2n1` gave a logD (pH 10.5) of 5.81.
`Cc1ccc(C)c(S(=O)(=O)N(C)c2ccc(OC(=O)c3ccc4c(c3)OCO4)cc2)c1` gave a logD (pH 5.0) of 5.87.
With `O=[N+]([O-])c1cccc(-c2noc(CC3CCCCC3)n2)c1` the logD (pH 5.0) was 5.17.
Work on `O=C(OCc1c(F)cccc1Cl)c1cccc(S(=O)(=O)N2CCCC2)c1` yielded a logD (pH 2.0) of 4.22.
Compound `Cc1cc(C)c(NC(=O)CSc2nnc(-c3ccc(OC(F)F)cc3)n2N)c(C)c1` has a logD (pH 10.0) of 4.41.
`CCc1ccccc1Nc1nc(N)nc(CSc2nnc(-c3ccc(OC(F)F)cc3)n2N)n1` gave a logD (pH 7.3) of 4.35.
`Nc1cccc2c1C(=O)N(C(=O)c1cc(-c3ccccc3Cl)nc3ccccc13)C2=O` gave a logD (pH 10.5) of 4.63.
With `CCOC(=O)C1CCN(S(=O)(=O)c2nc3nc(C)cc(C)n3n2)CC1` the logD (pH 7.3) was 2.71.
Compound `COc1ccc(C(=O)OCC(=O)NC2CCCCCCC2)cc1[N+](=O)[O-]` has a logD (pH 5.0) of 4.28.
Compound `CCCCOc1ccc(C(=O)Oc2ccc3c(c2)OCO3)cc1OC` has a logD (pH 5.0) of 4.77.
With `COc1cccc(-c2cn3c4c(=O)n(C)c(=O)n(C)c4nc3n2-c2cccc(C)c2)c1` the logD (pH 5.0) was 4.16.
In the case of `Cc1nccn1S(=O)(=O)c1ccc(Cl)cc1`, the logD (pH 7.3) is reported as 2.93.
`COC(=O)c1ccc(C)c(NC(=O)Cc2coc3cc4c(cc23)CCC4)c1` gave a logD (pH 5.0) of 4.78.
Compound `CCc1nc2sc(C#N)c(N)n2c(=O)c1C#N` has a logD (pH 5.0) of 2.09.
`CCOC(=O)c1[nH]c2c(c1C)C(Cl)=C(C=O)CC2` gave a logD (pH 5.0) of 3.92.
For `O=C(NC1CC1)c1ccc(COc2c(F)c(F)cc(F)c2F)o1`, the logD (pH 5.0) was 3.54.
In the case of `CCc1noc(-c2[nH]c3ccccc3c2C(=O)C(=O)N(C)C)c1C`, the logD (pH 10.0) is reported as 2.68.
`O=C(CSc1nnc(-c2ccccc2F)n1CCc1ccccc1)N1CCOCC1` gave a logD (pH 7.3) of 3.79.
Work on `COc1cc(OC)c(C2C3=C(CCCC3=O)Nc3ncnn32)cc1OC` (configuration not stated) yielded a logD (pH 7.3) of 2.19.
`Cn1c(C(=O)N2CCC3(CC2)OCCO3)cc2c(=O)n3ccccc3nc21` showed a logD (pH 7.3) of 2.87.
`C#Cc1cccc(NC(=O)c2cc(C(=O)Nc3cccc(C#C)c3)cc(N3C(=O)c4ccccc4C3=O)c2)c1` gave a logD (pH 5.0) of 6.85.
Work on `COc1ccc(C(C)=O)cc1COC(=O)c1cc(Cl)ccc1Cl` yielded a logD (pH 5.0) of 4.45.
For `COc1cc(C(=O)c2ccc(F)cc2)cc(C(=O)c2ccc(F)cc2)c1`, the logD (pH 5.0) was 4.89.
With `CSc1ncccc1C(=O)OCC(=O)Nc1c(C)n(C)n(-c2ccccc2)c1=O` the logD (pH 8.0) was 3.63.
Compound `Nc1nc(SCC(=O)N(CCO)CCO)nc2sc3c(c12)CCCC3` has a logD (pH 10.5) of 3.2.
With `COc1ccc(CNC(=O)C2CCCC2)cc1` the logD (pH 5.0) was 2.6.
In the case of `CSc1scc(-c2cccs2)c1C#N`, the logD (pH 5.0) is reported as 3.69.
With `Cc1[nH]c2ccccc2c1C1=CN2CCS(=O)(=O)N=C2S1` the logD (pH 2.0) was 1.56.
In the case of `CCCSc1nc2c(c(=O)n1-c1ccc(Br)cc1)SCC2`, the logD (pH 10.0) is reported as 4.61.
With `Nc1nc2nc3nc(N)sc3cc2s1` the logD (pH 10.0) was 1.56.
Work on `Cn1c2ccccc2n2c3nc(C#N)c(C#N)nc3c(C#N)c12` yielded a logD (pH 5.0) of 3.61.
In the case of `COCCn1c(C)cc(C(=O)CSc2nnc3[nH]c4ccccc4n23)c1C`, the logD (pH 10.5) is reported as 3.45.
Work on `Nn1c(COc2ccccc2)nnc1SC(F)F` yielded a logD (pH 7.3) of 1.85.
`Cc1c(OCc2ccccc2)cccc1[N+](=O)[O-]` gave a logD (pH 5.0) of 4.41.
For `CCCC(=O)OCC(=O)Nc1ccc(F)cc1Cl`, the logD (pH 5.0) was 3.02.
`CCOC(=O)C1=C(C)NC(C)=C(C(=O)OC)C1c1ccco1` (configuration not stated) showed a logD (pH 10.0) of 3.67.
In the case of `CCOC(=O)N1CCN(c2nc(C(F)(F)F)nc3c(C)cc(C)cc23)CC1`, the logD (pH 10.5) is reported as 5.92.
Work on `CCOC(=O)C(C)(C)N(CCC(C)C)S(=O)(=O)c1ccc([N+](=O)[O-])cc1` yielded a logD (pH 5.0) of 4.75.
For `CCn1cc(-c2nc3c4c(C)c(C)sc4ncn3n2)cn1`, the logD (pH 5.0) was 3.77.
Compound `Cn1c(=O)c(C(=O)CN2CCSc3ccccc32)c(N)n(Cc2ccccc2)c1=O` has a logD (pH 10.5) of 4.71.
`O=C1c2ccccc2C(=O)N1c1ccccc1C(F)(F)F` showed a logD (pH 5.0) of 3.55.
In the case of `COc1cc2c(cc1NC(=O)COC(=O)c1cc(OC)c(OC)cc1[N+](=O)[O-])oc1ccccc12`, the logD (pH 5.0) is reported as 5.04.
Compound `CC(Sc1nnc(-c2ccc(F)cc2)n1-c1ccccc1)C(N)=O` (configuration not stated) has a logD (pH 7.3) of 3.38.
Work on `COc1cccc(-c2ccc3c(N)c(C(=O)Nc4ccc(F)c(F)c4)sc3n2)c1` yielded a logD (pH 7.3) of 5.86.
`COc1cccc(-n2c(SCc3cc(=O)n4ccsc4n3)nc3ccccc3c2=O)c1` showed a logD (pH 2.0) of 3.56.
In the case of `Cc1sc2nc(SCC(=O)N3CCCC3)n(C3CCCCC3)c(=O)c2c1C`, the logD (pH 5.0) is reported as 5.16.
With `N#CC(=Cc1ccc2c(c1)OCO2)C(=O)NCc1cccc(CNC(=O)C(C#N)=Cc2ccc3c(c2)OCO3)c1` the logD (pH 6.5) was 4.92.
In the case of `CC1CN(c2nc3ccccn3c(=O)c2C=C(C#N)C#N)CC(C)O1` (configuration not stated), the logD (pH 10.0) is reported as 3.24.
With `CCN(CC)c1ccc(C=C2C(=O)c3ccccc3C2=O)c(OC)c1` the logD (pH 10.5) was 5.05.
Work on `CN(C)c1nc(N)nc(COC(=O)c2ccc(-n3cnnc3)cc2)n1` yielded a logD (pH 10.5) of 2.74.
Work on `CCOc1ccc(-n2c(SCC(=O)NC3CC3)nc3sc4c(c3c2=O)CCC4)cc1` yielded a logD (pH 5.0) of 4.64.
`Cc1cccc(C)c1NC(=O)Cn1cc(C(=O)C2CC2)c2ccccc21` gave a logD (pH 2.0) of 3.47.
Work on `Cc1cc(C)n2c(SCc3ccc(C(=O)c4ccccc4)cc3)nnc2n1` yielded a logD (pH 10.5) of 4.43.
`CC(C)(C)c1cc(Cc2ccccc2)n[nH]1` gave a logD (pH 10.5) of 4.35.
Work on `Cc1cc(C)n(C2=NCCN2S(=O)(=O)c2cc(C(F)(F)F)cc(C(F)(F)F)c2)n1` yielded a logD (pH 10.5) of 4.7.
For `O=C(/C=C/c1ccc2c(c1)OCO2)Nc1ccc2c(c1)OCO2`, the logD (pH 2.0) was 3.72.
Work on `CC(C)NC(=S)N1CCN(S(=O)(=O)c2cccc(C(F)(F)F)c2)CC1` yielded a logD (pH 5.0) of 3.9.
Compound `CN(Cc1ccccc1)S(=O)(=O)c1ccc(NC(=O)Cc2ccc(F)cc2)cc1` has a logD (pH 5.0) of 5.14.
For `CCc1ccc(OCC(=O)NCCc2ccc(OC)c(OC)c2)cc1`, the logD (pH 5.0) was 4.22.
Work on `COc1ccc(C(=O)Cn2c(N3CCCCCC3)nc3c2c(=O)n(C)c(=O)n3C)cc1` yielded a logD (pH 10.0) of 4.42.
In the case of `COc1ccc(NC(=O)c2cc(NC(=O)c3ccccc3)cc(C(=O)Nc3ccc(OC)cc3)c2)cc1`, the logD (pH 5.0) is reported as 5.59.
`CCOC(=O)c1ccc(NCc2c(C)[nH]c(C(=O)OCC)c2C)cc1` showed a logD (pH 5.0) of 5.09.
